This note sets out measurements from patent US20230381321A1, “CAMPTOTHECIN CONJUGATES” (priority 2022, published 2023).

Holding throughout (assay type): cell-based
Test [1] relates to pancreatic cancer cells (BxPC3). Nature of the test: In vitro potency (CellTiter-Glo, 96 h) on BxPC3. To be noted: read-out: BxPC3 IC50. The method in brief:
(§1)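 Steps: plate log-phase cells in RPMI 1640/20% FBS; after 24 h add […] serial dilutions; incubate 4 days; measure luminescence to derive growth inhibition. All lines were STR-profiled and cultured no longer than 2 months.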
(ATP-based viability assays read luminescence as a measure of living cells.)

Test [2] has as its system breast cancer cells (MDA-MB-231). Nature of the test: In vitro potency (CellTiter-Glo, 96 h) on MDA-MB-231. To be noted: read-out: MDAMB 231 IC50. The method in brief: as §1
Test [3] concerns Hodgkin's lymphoma cells (L540cy). Nature of the test: In vitro potency (CellTiter-Glo, 96 h) on L540cy. The following applies: read-out: L540cy IC50. A digest of the protocol: as §1
Test [4] is described as follows: In vitro potency (CellTiter-Glo, 96 h) on Ls174T. To be noted: read-out: Ls174T IC50. The method in brief:
as §1

In test [5] the test system is anaplastic large cell lymphoma cells (DELBVR). Nature of the test: In vitro potency (CellTiter-Glo, 96 h) on DELBVR. To be noted: read-out: DELBVR IC50. The method in brief: as §1
The subject of test [6] is acute myeloid leukemia cells (MOLM-13). Nature of the test: In vitro potency (CellTiter-Glo, 96 h) on MOLM-13. The following applies: read-out: MOLM-13 IC50. The method in brief:
as §1

Test [7] concerns anaplastic large cell lymphoma cells (Karpas299). Nature of the test: In vitro potency (CellTiter-Glo, 96 h) on Karpas299. To be noted: read-out: Karpas299 IC50. A digest of the protocol:
as §1

Test [8] relates to renal carcinoma cells (786-O). Nature of the test: In vitro potency (CellTiter-Glo, 96 h) on 786-O. The following applies: read-out: 786-O IC50. The method in brief:
as §1

Another test has as its system melanoma cells (A2058). Nature of the test: In vitro potency (CellTiter-Glo, 96 h) on A2058. The following applies: read-out: A2058 IC50. The protocol: (§2) In vitro potency was assessed on multiple cancer cell lines. All cell lines were authenticated by STR profiling at IDEXX Bioresearch and cultured for no more than 2 months after resuscitation. Cells cultured in log-phase growth were seeded for 24 hours in 96-well plates containing […] RPMI 1640 supplemented with 20% FBS. Serial dilutions of antibody-drug conjugates in cell culture media were prepared at 4x working concentrations, and 50 μL of each dilution was added to the 96-well plates. Following addition of test articles, cells were incubated with test articles for 4 days at […]. After 96 hours, growth inhibition was assessed by CellTiterGlo® (Promega, Madison, WI) and luminescence was measured on a plate reader.
(§3) Cell viability was determined by CellTiter-Glo staining after 96h exposure to ADC. ND=Not Determined. In the following tables, “Ex_” refers to a drug linker number. For example, “Ag4-Ex_4a” refers to a conjugate of an Ag4 antibody with drug linker 4a.

Test [9] has as its system B-lymphocyte cancer cells (SU-DHL4). Nature of the test: In vitro potency (CellTiter-Glo, 96 h) on SU-DHL4. The following applies: read-out: SU-DHL-4 IC50. The method in brief: as §1
Test [10] deals with anaplastic large cell lymphoma cells (DEL). Nature of the test: In vitro potency (CellTiter-Glo, 96 h) on DEL. The following applies: read-out: DEL IC50. The method in brief: as §1
The test system of test [11] is non-small-cell lung cancer cells (Calu1). Nature of the test: In vitro potency (CellTiter-Glo, 96 h) on Calu1. To be noted: read-out: Calu1 IC50. The protocol:
as §2, §3

[12] abbreviates: CPT free drugs, CellTiter-Glo after 96 h exposure.
[13] abbreviates: Homo sapiens, BXPC-3, 96 h, CPT free drugs, CellTiter-Glo after 96 h exposure.
Setting [14] is: Homo sapiens, MDA-MB-231, 96 h, CPT free drugs, CellTiter-Glo after 96 h exposure.
Where [15] appears, read: L540cy, 96 h, CPT free drugs, CellTiter-Glo after 96 h exposure.
Setting [16] is: Homo sapiens, LS174T, CPT free drugs, CellTiter-Glo after 96 h exposure.
The mark [17] stands for this setting: 96 h, CPT free drugs, CellTiter-Glo after 96 h exposure.
The mark [18] stands for this setting: Homo sapiens, MOLM-13, 96 h, CPT free drugs, CellTiter-Glo after 96 h exposure.
Setting [19] is: Homo sapiens, KARPAS-299, 96 h, CPT free drugs, CellTiter-Glo after 96 h exposure.
Setting [20] is: Homo sapiens, 786-0, 96 h, CPT free drugs, CellTiter-Glo after 96 h exposure.
Where [21] appears, read: Homo sapiens, A2058, 96 h, CPT free drugs, CellTiter-Glo after 96 h exposure.
Where [22] appears, read: Homo sapiens, SU-DHL-4, 96 h, CPT free drugs, CellTiter-Glo after 96 h exposure.
Setting [23] is: Homo sapiens, Calu-1, 96 h, CPT free drugs, CellTiter-Glo after 96 h exposure.

Read-outs that look alike come from different tables or passages of the source.

As to `CC[C@@]1(O)C(=O)OCc2c1cc1n(c2=O)Cc2c-1nc1cc3c(cc1c2CN)C(C)CO3` (single isomer, unassigned) [Compound 11a], the half-maximal inhibitory concentration (IC50) was 23 nM in [1] (setting [12]); 100 nM in test [2] (setting [12]); 6 nM in test [3] (setting [12]); more than 1000 nM in [4] (setting [12]); 4 nM in [5] (setting [12]); 14 nM in test [6] (setting [12]). For the same compound, the IC50 in test [7] (setting [12]) was 13 nM; in [8] (setting [12]) it was 15 nM; in the test on melanoma cells (A2058) (setting [12]), 5 nM; in [9] (setting [12]), 3 nM; in [10] (setting [12]), 2 nM; in [11] (setting [12]), 131 nM.

For `CC[C@@]1(O)C(=O)OCc2c1cc1n(c2=O)Cc2c-1nc1ccc3c(c1c2CN)COC3` [Compound 2aq], the IC50 was found to be 27 nM in test [1] (setting [13]); 12 nM in [2] (setting [14]); 4 nM in test [3] (setting [15]); 12 nM in [4] (setting [16]); 3 nM in test [5] (setting [17]); 39 nM in test [6] (setting [18]). Moreover, the IC50 in test [7] (setting [19]) is 7 nM; in test [8] (setting [20]), 11 nM; with melanoma cells (A2058) (setting [21]), 18 nM; in test [9] (setting [22]), 5 nM; in test [10] (setting [17]), 2 nM; in [11] (setting [23]), 1 nM.

Turning to `CC[C@@]1(O)C(=O)OCc2c1cc1n(c2=O)Cc2c-1nc1cc3c(cc1c2CN)CCS3` [Compound 2ar], the IC50 in [1] (setting [13]) came to 43 nM; in test [2] (setting [14]) it was 14 nM; in test [3] (setting [15]), 4 nM; in test [4] (setting [16]), 14 nM; in test [5] (setting [17]), 5 nM; in test [6] (setting [18]) it was 258 nM. In addition, the IC50 in test [7] (setting [19]) was determined as 29 nM; in test [8] (setting [20]), 26 nM; in the test with melanoma cells (A2058) (setting [21]), 7 nM; in test [9] (setting [22]) it was 13 nM; in test [10] (setting [17]) it was 7 nM; in test [11] (setting [23]) it was 26 nM.

As to `CC[C@@]1(O)C(=O)OCc2c1cc1n(c2=O)Cc2c-1nc1cc(F)c3c(c1c2CN)CCC3` [Compound 2as], the IC50 came out at 5 nM in test [1] (setting [13]); 1 nM in [2] (setting [14]); 1 nM in [3] (setting [15]); 2 nM in test [4] (setting [16]); 1 nM in test [5] (setting [17]); 51 nM in test [6] (setting [18]). The IC50 in test [7] (setting [19]) is 3 nM; in test [8] (setting [20]), 3 nM; with melanoma cells (A2058) (setting [21]), 3 nM; in test [9] (setting [22]) it was 2 nM; in [10] (setting [17]) it was 1 nM; in test [11] (setting [23]) it was 4 nM.

In the case of `CC[C@@]1(O)C(=O)OCc2c1cc1n(c2=O)Cc2c-1nc1ccc(SC)c(F)c1c2CN` [Compound 2au], the IC50 in test [1] (setting [13]) is 6 nM; in test [2] (setting [14]) it was 1 nM; in test [3] (setting [15]), 1 nM; in test [4] (setting [16]), 2 nM; in test [5] (setting [17]), 1 nM; in test [6] (setting [18]) it was 40 nM. Moreover, the IC50 amounted to 5 nM in test [7] (setting [19]); 4 nM in test [8] (setting [20]); 3 nM with melanoma cells (A2058) (setting [21]); 2 nM in [9] (setting [22]); 1 nM in test [10] (setting [17]); 7 nM in test [11] (setting [23]).

For `CC[C@@]1(O)C(=O)OCc2c1cc1n(c2=O)Cc2c-1nc1ccc3c(c1c2CN)SCC3` [Compound 2av], the IC50 worked out at 34 nM in [1] (setting [13]); 9 nM in test [2] (setting [14]); 5 nM in [3] (setting [15]); 11 nM in [4] (setting [16]); 4 nM in test [5] (setting [17]); 236 nM in [6] (setting [18]). The IC50 in [7] (setting [19]) turned out to be 26 nM; in test [8] (setting [20]) it was 22 nM; in the test with melanoma cells (A2058) (setting [21]) it was 4 nM; in [9] (setting [22]) it was 8 nM; in test [10] (setting [17]), 5 nM; in test [11] (setting [23]), 25 nM.

With `CC[C@@]1(O)C(=O)OCc2c1cc1n(c2=O)Cc2c-1nc1cc(F)cc(Br)c1c2CN` [Compound 2aw], the IC50 in [1] (setting [13]) is 149 nM; in test [2] (setting [14]) it was 456 nM; in test [3] (setting [15]), 25 nM; in [4] (setting [16]), more than 1000 nM; in test [5] (setting [17]) it was 15 nM; in test [6] (setting [18]) it was 199 nM. The IC50 in test [7] (setting [19]) was 36 nM; in test [8] (setting [20]), 58 nM; in the test on melanoma cells (A2058) (setting [21]), 18 nM; in test [9] (setting [22]), 22 nM; in test [10] (setting [17]), 15 nM; in [11] (setting [23]), 269 nM.

In the case of `CC[C@@]1(O)C(=O)OCc2c1cc1n(c2=O)Cc2c-1nc1cc3c(cc1c2CN)CCO3` [Compound 2n, (5S)-14-(aminomethyl)-5-ethyl-5-hydroxy-7,20-dioxa-11,24-diazahexacyclo[11.11.0.02,11.04,9.015,23.017,21]tetracosa-1(24),2,4(9),13,15(23),16,21-heptaene-6,10-dione;2,2,2-trifluoroacetic acid], the IC50 turned out to be 3 nM in [1] (Homo sapiens, BXPC-3, 96 h); 8 nM in test [2] (Homo sapiens, MDA-MB-231, 96 h); 2 nM in test [3] (L540cy, 96 h); 4 nM in test [4] (Homo sapiens, LS174T, 96 h); 1 nM in [5] (96 h); 29 nM in test [6] (Homo sapiens, MOLM-13, 96 h). The IC50 was 5 nM in test [7] (Homo sapiens, KARPAS-299, 96 h); 5 nM in test [8] (Homo sapiens, 786-0, 96 h); 3 nM in the test on melanoma cells (A2058) (Homo sapiens, A2058, 96 h); 1 nM in test [9] (Homo sapiens, SU-DHL-4, 96 h); 1 nM in [10] (96 h); 18 nM in test [11] (Homo sapiens, Calu-1, 96 h).

As to `CC[C@@]1(O)C(=O)OCc2c1cc1n(c2=O)Cc2c-1nc1cc3c(cc1c2CN)CC=C3` [Compound 5], the IC50 is 40 nM in test [1] (setting [13]); 218 nM in test [2] (setting [14]); 9 nM in [3] (setting [15]); more than 1000 nM in test [4] (setting [16]); 4 nM in test [5] (setting [17]); 258 nM in [6] (Homo sapiens, MOLM-13, 96 h). Moreover, the IC50 turned out to be 10 nM in [7] (setting [19]); 16 nM in test [8] (setting [20]); 7 nM in the test with melanoma cells (A2058) (setting [21]); 7 nM in test [9] (setting [22]); 4 nM in test [10] (setting [17]); 129 nM in test [11] (Homo sapiens, Calu-1, 96 h).

As for `CC[C@@]1(O)C(=O)OCc2c1cc1n(c2=O)Cc2c-1nc1cccc(OC)c1c2CN` [Compound 5a], the IC50 was 154 nM in test [1] (setting [13]); 350 nM in test [2] (setting [14]); 20 nM in [3] (setting [15]); more than 1000 nM in [4] (setting [16]); 10 nM in test [5] (setting [17]); 73 nM in [6] (setting [18]). The IC50 in test [7] (setting [19]) was found to be 28 nM; in test [8] (setting [20]), 56 nM; in the test on melanoma cells (A2058) (setting [21]), 16 nM; in test [9] (setting [22]), 12 nM; in [10] (setting [17]), 7 nM; in test [11] (setting [23]), 389 nM.

By IC50 is commonly meant the midpoint of a concentration-inhibition curve.
